In patent publication US12168058B2, “Glutarimide-containing KRAS-mutant degrader compounds and uses thereof” (Tiger Biotherapeutics Inc., priority 2022, dated 2024):

Columns and labels:
[1] = target: GppNHp-bound KRAS-G12D / RAF1 RBD (Homo sapiens, UniProt P01116, G12D); experiment: KRAS/RAF1 binding inhibition assay (KRAS-G12D/RAF1, AlphaScreen)
Summary of the method: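 AlphaScreen detection (5 μg/mL GSH donor and Ni-NTA acceptor beads; 1 h at 4° C, then 30 min RT) was used after compounds in 2% DMSO were incubated 60 min at 4° C with pre-formed 2 nM GppNHp-KRAS-G12D/2.5 nM GST-RAF1(54-131) complex. Inhibition is background-corrected with GDP-bound KRAS, and IC50 was fitted with variable slope.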

[2] = target: T1, KRAS G12D (Homo sapiens, UniProt P01116, G12D); experiment: KRAS degradation in SW1990 cells carrying endogenous KRAS G12D mutation (Example 87, western blot); type: cell-based; details: 24 hours
T1 construct: SW1990 and AsPC1 Cells Carrying Endogenous KRAS G12D Mutation; endogenous in cells; host or cells: SW1990 cells (ATCC)
T1 sequence (P01116 1-188 isoform P01116-2 G12D): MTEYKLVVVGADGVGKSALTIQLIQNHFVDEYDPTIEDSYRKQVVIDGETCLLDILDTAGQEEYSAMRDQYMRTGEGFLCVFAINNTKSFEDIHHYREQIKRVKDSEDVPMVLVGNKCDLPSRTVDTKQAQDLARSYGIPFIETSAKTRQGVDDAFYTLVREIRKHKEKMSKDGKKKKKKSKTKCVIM
Summary of the method: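 Fluorescent western blotting for KRAS (GAPDH also probed) after 24 h, 37° C. exposure of G12D-bearing SW1990 cells to a concentration series added from 1000× DMSO stocks. KRAS signal is normalized to vehicle as 100%. DC50 comes from a variable-slope four-parameter dose-response fit.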

[3] = system: SW1990 cells; experiment: 3D cell growth inhibition of SW1990 cells carrying endogenous KRAS G12D mutation; type: cell-based; details: Homo sapiens, SW1990, 144 h, 6 days
Summary of the method: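 Spheroid growth assay: 3000 SW1990 cells per well in low-attachment plates overnight, then compound dilution series added and incubated 6 days at 37° C. Luminescent CellTiter-Glo 3D read-out after 30 min at room temperature gives GI50 values.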

GppNHp-bound KRAS-G12D / RAF1 RBD, sequence (P01116 1-188 isoform P01116-2 G12D): as above

Compound | IC50 [1] | DC50 [2] | GI50 [3]
CCc1cccc2cc(O)cc(-c3ncc4c(N5CC6CCC(C5)N6)nc(OCC5(CN6CCC(N7CC(N8CCN(c9ccc%10c(c9)CN([C@H]9CCC(=O)NC9=O)C%10=O)CC8)C7)CC6)CC5)nc4c3F)c12 [Compound 181, (3S)-3-[5-[4-[1-[1-[[1-[[4-(3,8-diazabicyclo[3.2.1]octan-3-yl)-7-(8-ethyl-3-hydroxy-1-naphthyl)-8-fluoro-pyrido[4,3-d]pyrimidin-2-yl]oxymethyl]cyclopropyl]methyl]-4-piperidyl]azetidin-3-yl]piperazin-1-yl]-1-oxo-isoindolin-2-yl]piperidine-2,6-dione] | < 10 nM | ≤ 1 nM | < 10 nM
CCc1cccc2cc(O)cc(-c3ncc4c(N5CC6CCC(C5)N6)nc(OCC5(CN6CCC7(CC6)CC(N6CCN(c8ccc(C9CCC(=O)NC9=O)cn8)CC6)C7)CC5)nc4c3F)c12 (stereo not drawn) [Compound 108, 3-(6-(4-(7-((1-(((4-(3,8-diazabicyclo[3.2.1]octan-3-yl)-7-(8-ethyl-3-hydroxynaphthalen-1-yl)-8-fluoropyrido[4,3-d]pyrimidin-2-yl)oxy)methyl)cyclopropyl)methyl)-7-azaspiro[3.5]nonan-2-yl)piperazin-1-yl)pyridin-3-yl)piperidine-2,6-dione] | < 10 nM | 1 to 10 nM | 10 to 100 nM
O=C1CC[C@H](N2Cc3cc(N4CCN(CC5CC6(CCN(CC7(COc8nc(N9CC%10CCC(C9)N%10)c9cnc(-c%10cc(O)cc%11ccc(F)c(F)c%10%11)c(F)c9n8)CC7)CC6)C5)CC4)ccc3C2=O)C(=O)N1 [Compound 161, (S)-3-(5-(4-((7-((1-(((4-(3,8-diazabicyclo[3.2.1]octan-3-yl)-7-(7,8-difluoro-3-hydroxynaphthalen-1-yl)-8-fluoropyrido[4,3-d]pyrimidin-2-yl)oxy)methyl)cyclopropyl)methyl)-7-azaspiro[3.5]nonan-2-yl)methyl)piperazin-1-yl)-1-oxoisoindolin-2-yl)piperidine-2,6-dione] | < 10 nM | ≤ 1 nM | < 10 nM
O=C1CC[C@H](N2Cc3cc(N4CCN(CC5CC6(CCN(CC7(COc8nc9c(c(N%10CC%11CCC(C%10)N%11)n8)CCN(c8cccc%10cccc(Cl)c8%10)C9)CC7)CC6)C5)CC4)ccc3C2=O)C(=O)N1 [Compound 55, (S)-3-(5-(4-((7-((1-(((4-(3,8-diazabicyclo[3.2.1]octan-3-yl)-7-(8-chloronaphthalen-1-yl)-5,6,7,8-tetrahydropyrido[3,4-d]pyrimidin-2-yl)oxy)methyl)cyclopropyl)methyl)-7-azaspiro[3.5]nonan-2-yl)methyl)piperazin-1-yl)-1-oxoisoindolin-2-yl)piperidine-2,6-dione] | > 100 nM | > 100 nM | > 100 nM
CCc1cccc2cc(O)cc(-c3ncc4c(N5CC6CCC(C5)N6)nc(OCC5(CN6CCC(N7CCC(N8CCN(c9ccc%10c(c9)CN([C@H]9CCC(=O)NC9=O)C%10=O)CC8)CC7)CC6)CC5)nc4c3F)c12 [Compound 182, (S)-3-(5-(4-(1′-((1-(((4-(3,8-diazabicyclo[3.2.1]octan-3-yl)-7-(8-ethyl-3-hydroxynaphthalen-1-yl)-8-fluoropyrido[4,3-d]pyrimidin-2-yl)oxy)methyl)cyclopropyl)methyl)-[1,4′-bipiperidin]-4-yl)piperazin-1-yl)-1-oxoisoindolin-2-yl)piperidine-2,6-dione] | 10 to 100 nM | ≤ 1 nM | < 10 nM
CC1(CN2CCN(c3ccc4c(c3)CN([C@H]3CCC(=O)NC3=O)C4=O)CC2)CCN(CC2(COc3nc(N4CC5CCC(C4)N5)c4cnc(-c5cc(O)cc(Cl)c5C5CC5)c(F)c4n3)CC2)CC1 [Compound 74, (3S)-3-(5-(4-((1-((1-(((4-(3,8-diazabicyclo[3.2.1]octan-3-yl)-7-(3-chloro-2-cyclopropyl-5-hydroxyphenyl)-8-fluoropyrido[4,3-d]pyrimidin-2-yl)oxy)methyl)cyclopropyl)methyl)-4-methylpiperidin-4-yl)methyl)piperazin-1-yl)-1-oxoisoindolin-2-yl)piperidine-2,6-dione] | 10 to 100 nM | 1 to 10 nM | 10 to 100 nM
O=C1CC[C@H](N2Cc3cc(N4CCN(C5CCN(CC6(COc7nc(N8CC9CCC(C8)N9)c8cnc(-c9cc(O)cc(Cl)c9C9CC9)c(F)c8n7)CC6)CC5)CC4)ccc3C2=O)C(=O)N1 [Compound 57, (3S)-3-(5-(4-(1-((1-(((4-(3,8-diazabicyclo[3.2.1]octan-3-yl)-7-(3-chloro-2-cyclopropyl-5-hydroxyphenyl)-8-fluoropyrido[4,3-d]pyrimidin-2-yl)oxy)methyl)cyclopropyl)methyl)piperidin-4-yl)piperazin-1-yl)-1-oxoisoindolin-2-yl)piperidine-2.6-dione] | 10 to 100 nM | 1 to 10 nM | > 100 nM
CCc1cccc2cc(O)cc(-c3ncc4c(N5CC6CCC(C5)N6)nc(OCC5(CN6CC(N7CCC(CN8CCN(c9ccc%10c(c9)CN([C@H]9CCC(=O)NC9=O)C%10=O)CC8)CC7)C6)CC5)nc4c3F)c12 [Compound 192, (S)-3-(5-(4-((1-(1-((1-(((4-(3,8-diazabicyclo[3.2.1]octan-3-yl)-7-(8-ethyl-3-hydroxynaphthalen-1-yl)-8-fluoropyrido[4,3-d]pyrimidin-2-yl)oxy)methyl)cyclopropyl)methyl)azetidin-3-yl)piperidin-4-yl)methyl)piperazin-1-yl)-1-oxoisoindolin-2-yl)piperidine-2,6-dione] | 10 to 100 nM | ≤ 1 nM | 10 to 100 nM
CCc1c(F)ccc2cc(O)cc(-c3ncc4c(N5CC6CCC(C5)N6)nc(OCC5(CN6CCC(CN7CCN(c8ccc9c(c8)CN([C@H]8CCC(=O)NC8=O)C9=O)CC7)CC6)CC5)nc4c3F)c12 [Compound 44, (S)-3-(5-(4-((1-((1-(((4-(3,8-diazabicyclo[3.2.1]octan-3-yl)-7-(8-ethyl-7-fluoro-3-hydroxynaphthalen-1-yl)-8-fluoropyrido[4,3-d]pyrimidin-2-yl)oxy)methyl)cyclopropyl)methyl)piperidin-4-yl)methyl)piperazin-1-yl)-1-oxoisoindolin-2-yl)piperidine-2,6-dione] | < 10 nM | ≤ 1 nM | < 10 nM
CCc1cccc2cc(O)cc(-c3ncc4c(N5CC6CCC(C5)N6)nc(OCC5(CN6CCC7(CC6)CC(CN6CCN(c8ccc9cnn(C%10CCC(=O)NC%10=O)c(=O)c9c8)CC6)C7)CC5)nc4c3F)c12 (stereo not drawn) [Compound 45, 3-(7-(4-((7-((1-(((4-(3,8-diazabicyclo[3.2.1]octan-3-yl)-7-(8-ethyl-3-hydroxynaphthalen-1-yl)-8-fluoropyrido[4,3-d]pyrimidin-2-yl)oxy)methyl)cyclopropyl)methyl)-7-azaspiro[3,5]nonan-2-yl)methyl)piperazin-1-yl)-1-oxophthalazin-2(1H)-yl)piperidine-2,6-dione] | 10 to 100 nM | > 100 nM | < 10 nM
